In patent US11286252B2, “Alkene spirocyclic compounds as farnesoid X receptor modulators” (BRISTOL-MYERS SQUIBB COMPANY, priority 2017, dated 2022):

Molecular target: T1, human FXR (Homo sapiens, UniProt Q96RI1)
T1 construct: expressed in transfected cells; host or cells: HEK293 cells stably carrying a 5xGal4-response-element firefly luciferase reporter, transiently transfected with pcDNA3.1-Gal4-FXR
T1 sequence (Q96RI1 262-486 limits assumed): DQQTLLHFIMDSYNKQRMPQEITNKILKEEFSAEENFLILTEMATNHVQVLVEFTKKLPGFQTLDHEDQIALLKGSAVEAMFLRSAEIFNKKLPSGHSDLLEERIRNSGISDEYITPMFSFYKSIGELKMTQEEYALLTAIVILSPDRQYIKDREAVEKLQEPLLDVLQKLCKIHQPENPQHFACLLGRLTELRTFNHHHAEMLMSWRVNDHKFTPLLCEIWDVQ
Test: transient human FXR/Gal4-luciferase reporter assay
Format: cell-based
Conditions: Gal4-hFXR fusion construct, luciferase reporter HEK293 cells, response relative to 8 μM GW-4064
Procedure: The exemplified compounds of the present invention were tested in the transient human FXR/Gal4-luciferase reporter assay, and assay results were reported in Table 1 and Examples 1 to 3 together with other analytical data.
A Gal4-hFXR fusion construct reporter system was used as the primary assay to characterize compound activity. A construct including 5 copies of the Gal4 promoter response element upstream of a firefly luciferase reporter cDNA was stably expressed in HEK293 cells. This reporter cell line was maintained in Dulbecco's Modified Eagle's medium (DMEM; Gibco) supplemented with 1% penicillin-streptomycin (P/S) solution, 500 μg/mL Zeocin and 10% charcoal/dextran-treated fetal bovine serum (cs-FBS) at 37° C. in a humidified 5% CO2 atmosphere. Another plasmid was constructed in which the human cytomegalovirus promoter in the pcDNA3.1 vector directs the expression of the cDNA encoding a fusion protein comprised of the DNA binding domain from the Gal4 transcription factor fused to the ligand binding domain from human FXR.
The day prior to transfection, the reporter cells in culture are detached from the plate with trypsin and plated into a T75 flask at a sufficient density to achieve approximately 90% confluence the next morning. The transfection reagents are prepared by separately diluting 25 μg of the pcDNA3.1-Gal4-FXR plasmid into 1.87 mL of Opti-MEM (Thermo-Fisher), and 40 μL of Lipofectamine 2000 (Thermo-Fisher) into 1.87 mL of Opti-MEM, and then adding the diluted DNA solution into the diluted Lipofectamine 2000 solution and incubating at room temperature for 15-20 minutes. The mixture is further diluted with 10 mL of a solution comprised of DMEM, 10% cs-FBS, and 1% P/S immediately prior to transferring to the cells. The maintenance culture media is aspirated from the cells and the final transfection mixture is added before the cells are incubated overnight at 37° C. in a humidified 5% CO2 atmosphere. This protocol can be scaled up, and the transiently transfected cells can be cryopreserved in an assay-ready format.
For compound testing, 100 nL of the compounds (serial dilutions in DMSO) are dispensed with an Echo acoustic dispenser (Labcyte) into the wells of a Corning/Costar clear bottom 384-well white plate. The transfected cells are harvested, counted, and diluted such that 10-25,000 cells in 25 μL are plated into each well of the 384-well compound assay plate. The compound-treated cells are incubated overnight at 37° C. in a humidified 5% CO2 atmosphere. The next morning 25 μL of Steady-Glo (Promega) are added to each well of the plate, the mixture is incubated for 15 min. with shaking, and luminescence is measured on an Envision (Perkin Elmer) plate reader. Background counts from cells treated with DMSO alone are subtracted from all raw counts, and the corrected values are converted to a percentage of the control response attained with 8 μM GW-4064.

| Compound | EC50 (unit inferred) [nM] | EC50 [nM] |
| --- | --- | --- |
| NC(=O)Cc1ccc(OCC2CC3(CC(/C=C/c4c(-c5ccccc5C(F)(F)F)noc4C4CC4)C3)C2)cc1 (stereo not drawn) [Example 49] | 178 | – |
| Cc1c(OCC2CC3(CC(/C=C/c4c(-c5c(Cl)cncc5Cl)noc4C4CC4)C3)C2)nn(C(C)C)c1C(=O)O (stereo not drawn) [Example 59] | 85 | – |
| O=C(O)c1ncc(OCC2CC3(CC(/C=C/c4c(-c5ccccc5C(F)(F)F)noc4C4CC4)C3)C2)cc1OC1CC1 (stereo not drawn) [Example 61] | 16 | – |
| NC(=O)c1ncc(OCC2CC3(CC(/C=C/c4c(-c5ccccc5C(F)(F)F)noc4C4CC4)C3)C2)cc1OC1CCC1 (stereo not drawn) [Example 63] | 393 | – |
| COc1nc(C(=O)O)cc2ccc(N3CC4(CC(/C=C/c5c(-c6ccccc6C(F)(F)F)noc5C5CC5)C4)C3)cc12 [Example 19] | 169 | – |
| CC(C)Oc1cc(C(=O)O)nc2ccc(N3CC4(CC(/C=C/c5c(-c6ncccc6C(F)(F)F)noc5C5CC5)C4)C3)cc12 [Example 15] | 85 | – |
| O=C(O)c1cc(C(F)(F)F)c2cc(OCC3CC4(CC(/C=C/c5c(-c6ccccc6C(F)(F)F)noc5C5CC5)C4)C3)ccc2n1 (stereo not drawn) [Example 52] | 82 | – |
| O=C(O)c1ccc(N2CC3(CC(/C=C/c4c(-c5c(Cl)cccc5Cl)noc4C4CC4)C3)C2)cc1 [Example 5] | 130 | – |
| O=C(O)c1cc(OC2CCC2)c2cc(N3CC4(CC(/C=C/c5c(-c6c(Cl)cncc6Cl)noc5C5CC5)C4)C3)ccc2n1 [Example 17] | 85 | – |
| Cc1cc(C(=O)O)nc2sc(N3CC4(CC(/C=C/c5c(-c6ccccc6C(F)(F)F)noc5C5CC5)C4)C3)nc12 [Example 9] | 268 | – |
| COc1cc(C(=O)O)nc2ccc(N3CC4(CC(/C=C/c5c(-c6c(Cl)cncc6Cl)noc5C5CC5)C4)C3)nc12 [Example 28] | 1630 | – |
| COc1cc(C(=O)O)nc2ccc(N3CC4(CC(/C=C/c5c(-c6ccncc6Cl)noc5C5CC5)C4)C3)cc12 [Example 2, (E)-6-(6-(2-(3-(3-chloropyridin-4-yl)-5-cyclopropylisoxazol-4-yl)vinyl)-2-azaspiro[3.3]heptan-2-yl)-4-methoxyquinoline-2-carboxylic acid] | – | 501 |
| O=C(O)c1cc(C(F)(F)F)c2cc(N3CC4(CC(/C=C/c5c(-c6ccccc6C(F)(F)F)noc5C5CC5)C4)C3)ccc2n1 [Example 8] | 137 | – |
| O=C(O)c1cc(O[C@@H]2CCOC2)c2cc(N3CC4(CC(/C=C/c5c(-c6ccccc6C(F)(F)F)noc5C5CC5)C4)C3)ccc2n1 [Example 20] | 33 | – |
| O=C(O)c1cc(O[C@@H]2CCOC2)c2cc(N3CC4(CC(/C=C/c5c(-c6cccnc6C(F)(F)F)noc5C5CC5)C4)C3)ccc2n1 [Example 26] | 231 | – |
| O=C(O)c1cc(OC2COC2)c2cc(N3CC4(CC(/C=C/c5c(-c6ccccc6C(F)(F)F)noc5C5CC5)C4)C3)ccc2n1 [Example 18] | 52 | – |
| O=C(O)c1cccc(OCC2CC3(CC(/C=C/c4c(-c5c(Cl)cncc5Cl)noc4C4CC4)C3)C2)c1 (stereo not drawn) [Example 47] | 40 | – |
| COc1cc(C(=O)O)nc2ccc(N3CC4(CC(/C=C/c5c(-c6c(Cl)cncc6Cl)noc5C5CC5)C4)C3)cc12 [Example 1, (E)-6-(6-(2-(5-Cyclopropyl-3-(3,5-dichloropyridin-4-yl)isoxazol-4-yl)vinyl)-2-azaspiro[3.3]heptan-2-yl)-4-methoxyquinoline-2-carboxylic acid] | – | 155 |
| O=C(O)c1cc(O[C@H]2CCOC2)c2cc(N3CC4(CC(/C=C/c5c(-c6ccccc6C(F)(F)F)noc5C5CC5)C4)C3)ccc2n1 [Example 21] | 18 | – |
| O=C(O)c1cc(OC2COC2)c2cc(N3CC4(CC(/C=C/c5c(-c6cccnc6C(F)(F)F)noc5C5CC5)C4)C3)ccc2n1 [Example 23] | 165 | – |
| NC(=O)c1ncc(OCC2CC3(CC(/C=C/c4c(-c5ccccc5C(F)(F)F)noc4C4CC4)C3)C2)cc1OC1CC1 (stereo not drawn) [Example 64] | 667 | – |
| O=C(O)c1ncc(OCC2CC3(CC(/C=C/c4c(-c5ccccc5C(F)(F)F)noc4C4CC4)C3)C2)cc1C(F)(F)F (stereo not drawn) [Example 56] | 95 | – |
| O=C(O)c1ncc(OCC2CC3(CC(/C=C/c4c(-c5c(Cl)cncc5Cl)noc4C4CC4)C3)C2)cc1OC1CCC1 (stereo not drawn) [Example 58] | 22 | – |

| Compound | EC50 (unit inferred) [nM] | EC50 [nM] |
| --- | --- | --- |
| CN1CCN(c2cc(C(=O)O)nc3ccc(OCC4CC5(CC(/C=C/c6c(-c7ccccc7C(F)(F)F)noc6C6CC6)C5)C4)cc23)CC1 (stereo not drawn) [Example 67] | 302 | – |
| O=C(O)c1cc(C(F)(F)F)c2cc(N3CC4(CC(/C=C/c5c(-c6ccncc6Cl)noc5C5CC5)C4)C3)ccc2n1 [Example 6] | 140 | – |
| Cc1nc(C(=O)O)cc2ccc(N3CC4(CC(/C=C/c5c(-c6c(Cl)cncc6Cl)noc5C5CC5)C4)C3)cc12 [Example 13] | 429 | – |
| NC(=O)c1ncc(OCC2CC3(CC(/C=C/c4c(-c5c(Cl)cncc5Cl)noc4C4CC4)C3)C2)cc1OC1CCC1 (stereo not drawn) [Example 65] | 153 | – |
| O=C(O)c1ccc2cc(OCC3CC4(CC(/C=C/c5c(-c6ccccc6C(F)(F)F)noc5C5CC5)C4)C3)ccc2n1 (stereo not drawn) [Example 53] | 187 | – |
| O=C(O)c1ncc(OCC2CC3(CC(/C=C/c4c(-c5ccccc5C(F)(F)F)noc4C4CC4)C3)C2)cc1OC1CCC1 (stereo not drawn) [Example 62] | 36 | – |
| O=C(O)c1cc(F)c2nc(N3CC4(CC(/C=C/c5c(-c6c(Cl)cncc6Cl)noc5C5CC5)C4)C3)sc2c1 [Example 10] | 667 | – |
| Cn1nc(C(=O)O)cc1OCC1CC2(CC(/C=C/c3c(-c4ccccc4C(F)(F)F)noc3C3CC3)C2)C1 (stereo not drawn) [Example 51] | 99 | – |
| CCc1nc(C(=O)O)cc2ccc(N3CC4(CC(/C=C/c5c(-c6c(Cl)cncc6Cl)noc5C5CC5)C4)C3)cc12 [Example 14] | 302 | – |
| O=C(O)c1ncc(OCC2CC3(CC(/C=C/c4c(-c5c(Cl)cncc5Cl)noc4C4CC4)C3)C2)cc1C(F)(F)F (stereo not drawn) [Example 55] | 50 | – |
| O=C(O)c1cc2ccc(OCC3CC4(CC(/C=C/c5c(-c6c(Cl)cncc6Cl)noc5C5CC5)C4)C3)cc2nn1 (stereo not drawn) [Example 57] | 75 | – |
| O=C(O)c1cc(OCC2CC3(CC(/C=C/c4c(-c5c(Cl)cncc5Cl)noc4C4CC4)C3)C2)n(C2CC2)n1 (stereo not drawn) [Example 60] | 34 | – |
| Cc1cc(OCC2CC3(CC(/C=C/c4c(-c5ccccc5C(F)(F)F)noc4C4CC4)C3)C2)cnc1C(=O)O (stereo not drawn) [Example 50] | 142 | – |
| CN1CCN(c2cc(C(=O)O)nc3ccc(OCC4CC5(CC(/C=C/c6c(-c7c(Cl)cncc7Cl)noc6C6CC6)C5)C4)cc23)CC1 (stereo not drawn) [Example 66] | 188 | – |
| NC(=O)c1cccc(OCC2CC3(CC(/C=C/c4c(-c5ccccc5C(F)(F)F)noc4C4CC4)C3)C2)c1 (stereo not drawn) [Example 48] | 214 | – |
| CCOc1cc(C(=O)O)nc2ccc(N3CC4(CC(/C=C/c5c(-c6cccnc6C(F)(F)F)noc5C5CC5)C4)C3)cc12 [Example 25] | 153 | – |
| O=C(O)c1cc2ccc(OCC3CC4(CC(/C=C/c5c(-c6ccccc6C(F)(F)F)noc5C5CC5)C4)C3)cc2nn1 (stereo not drawn) [Example 54] | 122 | – |
| CC(C)Oc1cc(C(=O)O)nc2ccc(N3CC4(CC(/C=C/c5c(-c6ccccc6C(F)(F)F)noc5C5CC5)C4)C3)cc12 [Example 12] | 29 | – |
| Cn1nc(C(=O)O)cc1OCC1CC2(CC(/C=C/c3c(-c4c(Cl)cncc4Cl)noc3C3CC3)C2)C1 (stereo not drawn) [Example 45] | 24 | – |
| O=C(O)c1cc(C(F)(F)F)c2cc(N3CC4(CC(/C=C/c5c(-c6c(Cl)cccc6Cl)noc5C5CC5)C4)C3)ccc2n1 [Example 4] | 60 | – |
| O=C(O)c1cc(OC2COC2)c2cc(N3CC4(CC(/C=C/c5c(-c6c(Cl)cncc6Cl)noc5C5CC5)C4)C3)ccc2n1 [Example 24] | 114 | – |
| COc1cc(C(=O)O)nc2ccc(N3CC4(CC(/C=C/c5c(-c6cccnc6C(F)(F)F)noc5C5CC5)C4)C3)cc12 [Example 22] | 111 | – |
